Measured values published in BigSolDB 2.1.

O=P(c1ccccc1)(c1ccccc1)c1ccccc1
Conditions	solubility (mole fraction)
in benzene, 293.78 K	0.055
in benzene, 303.04 K	0.0747
in benzene, 314.12 K	0.0963
in benzene, 323.34 K	0.123
in benzene, 333.45 K	0.152
in ethyl acetate, 294.54 K	0.023
in ethyl acetate, 299.09 K	0.0275
in ethyl acetate, 303.3 K	0.0305
in ethyl acetate, 308.27 K	0.0348
in ethyl acetate, 313.72 K	0.0409
in ethyl acetate, 318.32 K	0.0496
in ethyl acetate, 323.21 K	0.0555
in ethyl acetate, 328.65 K	0.0659
in toluene, 294.42 K	0.0291
in toluene, 298.74 K	0.0346
in toluene, 303.15 K	0.0396
in toluene, 308.36 K	0.0487
in toluene, 313.53 K	0.0548
in toluene, 317.97 K	0.0666
in toluene, 323.13 K	0.0768
in toluene, 328.42 K	0.0882
in toluene, 333.77 K	0.0998
